# Assay results taken from EP0606804B1, “Marker for neurotensin receptor” (MARTINEX R & D INC., priority 1992, dated 2001).
# Where no end group is shown, it is not given here. FTC = fluorescein thiocarbamyl
# Columns and labels:
# [1] = Solubility; type: physicochemical; conditions: distilled water or aqueous buffer
# [2] = Toxicity (statement, no method given)
# [3] = Stability / shelf life; type: physicochemical; conditions: protected from light and maintained at 4°C
# [4] = biological target: T1, neurotensin receptor on purified brain membranes from adult male mice (mouse, UniProt O88319 1-424); assay: competition with 0.1 nM 125I-Tyr3-neurotensin on mouse brain membranes, filtration, 20 min at 22 C
# T1 construct: whole, on cells; This is the native receptor in a brain membrane preparation, not on intact cells; also called mouse brain membranes
# T1 sequence (O88319 whole entry): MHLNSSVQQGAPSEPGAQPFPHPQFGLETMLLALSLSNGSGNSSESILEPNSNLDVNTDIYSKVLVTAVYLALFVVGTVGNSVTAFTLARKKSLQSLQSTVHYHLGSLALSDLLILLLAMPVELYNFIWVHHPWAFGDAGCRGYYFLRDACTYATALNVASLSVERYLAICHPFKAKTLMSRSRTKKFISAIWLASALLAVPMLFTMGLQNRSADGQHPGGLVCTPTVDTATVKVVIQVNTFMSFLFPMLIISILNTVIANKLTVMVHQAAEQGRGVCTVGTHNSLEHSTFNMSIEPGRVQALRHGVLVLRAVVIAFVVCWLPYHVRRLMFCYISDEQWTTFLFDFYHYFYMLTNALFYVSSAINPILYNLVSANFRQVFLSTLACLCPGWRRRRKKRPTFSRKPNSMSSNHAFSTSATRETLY
IC50 [4] [nM],Molecule,solubility [1],toxicity [2] [% non-toxic],stability [3]
,"CC[C@H](C)[C@H](NC(=O)[C@H](Cc1ccc(O)cc1)NC(=O)[C@@H]1CCCN1C(=O)[C@H](CCCNC(=N)N)NC(=O)[C@H](CCCNC(=N)N)NC(=O)[C@@H]1CCCN1C(=O)[C@H](CCCCN)NC(=O)[C@H](CC(N)=O)NC(=O)[C@H](CCC(=O)O)NC(=O)[C@H](Cc1ccc(O)cc1)NC(=O)[C@H](CC(C)C)NC(=O)[C@H](CCC(=O)O)NC(=S)Nc1ccc2c(c1)C(=O)OC21c2ccc(O)cc2Oc2cc(O)ccc21)C(=O)N[C@@H](CC(C)C)C(=O)O [N-FTC-[Glu^1]NT, N-fluoresceyl thiocarbamyl-[Glu^1] neurotensin]",freely soluble,100,stable
0.55,"{FTC}-ELYENKPRRPYIL (Synthetic 13-residue neurotensin analogue with Glu in place of pGlu at position 1, carrying one fluorescein per peptide; Molecular weight 2080; also called N-FTC-[Glu1]NT; FTC-[Glu1]NT) [N-fluoresceyl thiocarbamyl-[Glu1] neurotensin]",,,
